Results reported in paper PMC8019204 (Cancer Science, 2021).
Values joined by “and” are separate entries in the source; they are usually repeats but may differ in a detail not shown here. Equal entries are not always repeated. Where two headings read alike, the source gives them in different places.

Key:
MET‐amplified NSCLC [1] = details: global population, cited from earlier work
METΔex14‐mutated NSCLC [2] = test system: METΔex14‐mutated NSCLC
[3] = single agent; Japanese patients with advanced solid tumors; cited from earlier work
MET‐amplified NSCLC [4] = test system: MET‐amplified NSCLC
[5] = GEOMETRY mono-1: plasma pharmacokinetics of capmatinib; format: in vivo, human; details: for AUC(0-t): AUC0–12, geometric mean (CV%)
GEOMETRY mono-1: safety = format: in vivo, human
METΔex14‐mutated NSCLC [6] = details: global population, cited from earlier work
[7] = 1L group, the one patient with PR
[8] = 2/3L, cohort 1a GCN ≥ 10 (n = 11)
[9] = 2/3L, cohort 1b GCN ≥ 6 to <10 (n = 1)
[10] = 2/3L, cohort 2 GCN ≥ 4 to <6 (n = 10)

## CNC(=O)c1ccc(-c2cnc3ncc(Cc4ccc5ncccc5c4)n3n2)cc1F [capmatinib, Capmatinib]
MET‐amplified NSCLC [1]; GCN ≥10, first‐line
  Median DOR: 7.5 months
MET‐amplified NSCLC [1]; GCN ≥10, second/third‐line
  Median DOR: 8.3 months
METΔex14‐mutated NSCLC [2]; 1L group (cohort 5b, n = 2)
  Best overall response: CR: 0 n (%) of patients
  Best overall response: Non‐CR/non‐PD: 0 n (%) of patients
  Best overall response: PD: 0 n (%) of patients
  Best overall response: PR: 1 (50.0) n (%) of patients
  Best overall response: SD: 1 (50.0) n (%) of patients
  Best overall response: Unknown: 0 n (%) of patients
METΔex14‐mutated NSCLC [2]; [7]
  DOR: 4.24 months
  Decrease in lesion size: 76.5%
  Time to confirmed PD after starting capmatinib: 168 days and 5.5 months
METΔex14‐mutated NSCLC [2]; 2/3L group (cohort 4)
  DCR (BIRC): 81.8%
  Median PFS (BIRC): 4.70 months
  ORR (BIRC): 36.4%
METΔex14‐mutated NSCLC [2]; 2/3L group (cohort 4, n = 11)
  Best overall response: CR: 0 n (%) of patients
  Best overall response: Non‐CR/non‐PD: 0 n (%) of patients
  Best overall response: PD: 1 (9.1) n (%) of patients
  Best overall response: PR: 4 (36.4) n (%) of patients
  Best overall response: SD: 5 (45.5) n (%) of patients
  Best overall response: Unknown: 1 (9.1) n (%) of patients
  Median DOR (95% CI): NE (3.35–NE)
  Median TTR (95% CI): NE (1.38–NE)
  Probability estimate at 3 mo for TTR (95% CI): 36.4 (15.5‐70.3)
METΔex14‐mutated NSCLC [2]; 2/3L group, a patient with PR
  Tumor shrinkage, deep response: ~ 80%
METΔex14‐mutated NSCLC [2]; 2/3L group, one patient with brain metastases, CT 12 weeks after starting capmatinib
  Brain response per independent neuroradiologist review: partial resolution of brain lesions
METΔex14‐mutated NSCLC [2]; one patient in each group (1L and 2/3L)
  Tumor shrinkage, deep response: ~ 80%
[3]
  Maximum tolerated dose: not identified
MET‐amplified NSCLC [4]; 1L, cohort 5a GCN ≥ 10
  Median DOR: 8.2 months
MET‐amplified NSCLC [4]; 1L, cohort 5a GCN ≥ 10 (n = 2)
  ORR (BIRC): 100%
MET‐amplified NSCLC [4]; 2/3L, cohort 1a GCN ≥ 10
  Median DOR: 8.3 months
MET‐amplified NSCLC [4]; [8]
  DCR (BIRC): 81.8%
  ORR (BIRC): 45.5%
MET‐amplified NSCLC [4]; [9]
  DCR (BIRC): 100.0%
  ORR (BIRC): 0%
MET‐amplified NSCLC [4]; 2/3L, cohort 2 GCN ≥ 4 to <6
  Median DOR: 9.7
MET‐amplified NSCLC [4]; [10]
  DCR (BIRC): 50.0%
  ORR (BIRC): 10%
MET‐amplified NSCLC [4]; 2/3L, cohort 3 GCN < 4 (n = 6)
  DCR (BIRC): 66.7%
  ORR (BIRC): 16.7%
[5]; 400 mg twice daily, Japanese patients
  Accumulation of exposure: 1.41 fold
[5]; 400 mg twice daily, overall study result
  Accumulation of exposure: 1.39 fold
[5]; cycle 1, day 15 (steady state), 400 mg twice daily, fasting, Japanese patients
  Racc AUC0–12 (accumulation ratio), geometric mean (CV%): 1.41
[5]; day 15, 400 mg twice daily, Japanese patients
  Time at which maximum concentration was reached after administration: ≤ 1 h
[5]; human, plasma, oral, 400 mg
  half-life: 6.54 h
[5]; human, plasma, oral, 400 mg, cycle 1, day 1, 400 mg twice daily, fasting, Japanese patients
  AUC(0-t): 18200 ng·h/mL
[5]; human, plasma, oral, 400 mg, cycle 1, day 15 (steady state), 400 mg twice daily, fasting, Japanese patients
  AUC(0-t): 27000 ng·h/mL
[5]; human, plasma, oral, 400 mg, Cmax, geometric mean (CV%), cycle 1, day 15 (steady state), 400 mg twice daily, fasting, Japanese patients
  Cmax: 5920 ng/mL
GEOMETRY mono-1: safety; 45 Japanese patients
  Treatment‐related AE: Nausea: 35.6%
  Treatment‐related AE: Oedema peripheral: 31.1%
  Treatment‐related AE: blood creatinine increased: 53.3%
GEOMETRY mono-1: safety; METΔex14 1L group (n = 2)
  Capmatinib interrupted due to AEs: both
  Discontinuation from treatment phase, reason: Adverse event: 1 (50.0) n (%) of patients
GEOMETRY mono-1: safety; METΔex14 2/3L group (n = 11)
  Capmatinib interrupted due to AEs: 10 patients
  Discontinuation from treatment phase, reason: Adverse event: 3 (27.3) n (%) of patients
  Dose reductions due to AEs: eight
GEOMETRY mono-1: safety; all patients (n = 45)
  AEs leading to permanent discontinuation: 8 (17.8) n (%) of patients
  AEs requiring dose adjustment/interruption: 30 (66.7) n (%) of patients
  Any AE: 45 (100.0) n (%) of patients
  Any grade 3/4 AE: 33 (73.3) n (%) of patients
  Any grade 3/4 serious AE: 18 (40.0) n (%) of patients
  Any serious AE: 22 (48.9) n (%) of patients
  Any treatment‐related grade 3/4 serious AE: 9 (20.0) n (%) of patients
  Any treatment‐related serious AE: 12 (26.7) n (%) of patients
  Grade 3/4 AEs leading to permanent discontinuation: 4 (8.9) n (%) of patients
  Grade 3/4 AEs requiring dose adjustment/interruption: 22 (48.9) n (%) of patients
GEOMETRY mono-1: safety; all patients (n = 45), Table 4
  Any grade 3/4 treatment‐related AE: 25 (55.6) n (%) of patients
  Any treatment‐related AE: 44 (97.8) n (%) of patients
GEOMETRY mono-1: safety; all patients (n = 45), considered related to NSCLC
  Deaths: 1 (2.2) n (%) of patients
GEOMETRY mono-1: safety; any grade, n = 45
  Treatment‐related AE (investigations): ALT increased: 6 (13.3) n (%) of patients
  Treatment‐related AE (investigations): AST increased: 6 (13.3) n (%) of patients
  Treatment‐related AE (investigations): Amylase increased: 8 (17.8) n (%) of patients
  Treatment‐related AE (investigations): Blood ALP increased: 4 (8.9) n (%) of patients
  Treatment‐related AE (investigations): Blood creatinine increased: 24 (53.3) n (%) of patients
  Treatment‐related AE (investigations): Lipase increased: 6 (13.3) n (%) of patients
  Treatment‐related AE (investigations): Neutrophil count decreased: 5 (11.1) n (%) of patients
  Treatment‐related AE (investigations): Platelet count decreased: 8 (17.8) n (%) of patients
  Treatment‐related AE (investigations): WBC count decreased: 4 (8.9) n (%) of patients
  Treatment‐related AE (investigations): γGT increased: 3 (6.7) n (%) of patients
  Treatment‐related AE: Anaemia: 3 (6.7) n (%) of patients
  Treatment‐related AE: Cellulitis: 3 (6.7) n (%) of patients
  Treatment‐related AE: Constipation: 5 (11.1) n (%) of patients
  Treatment‐related AE: Decreased appetite: 10 (22.2) n (%) of patients
  Treatment‐related AE: Diarrhoea: 8 (17.8) n (%) of patients
  Treatment‐related AE: Dry skin: 4 (8.9) n (%) of patients
  Treatment‐related AE: Fatigue: 4 (8.9) n (%) of patients
  Treatment‐related AE: Headache: 3 (6.7) n (%) of patients
  Treatment‐related AE: Hypoalbuminaemia: 4 (8.9) n (%) of patients
  Treatment‐related AE: Malaise: 3 (6.7) n (%) of patients
  Treatment‐related AE: Nausea: 16 (35.6) n (%) of patients
  Treatment‐related AE: Oedema peripheral: 14 (31.1) n (%) of patients
  Treatment‐related AE: Pyrexia: 7 (15.6) n (%) of patients
  Treatment‐related AE: Rash: 5 (11.1) n (%) of patients
  Treatment‐related AE: Vomiting: 12 (26.7) n (%) of patients
GEOMETRY mono-1: safety; any grade, n = 45, Table 5
  Any treatment‐related AE: 44 (97.8) n (%) of patients
GEOMETRY mono-1: safety; grade 3/4, n = 45
  Treatment‐related AE (investigations): ALT increased: 2 (4.4) n (%) of patients
  Treatment‐related AE (investigations): AST increased: 2 (4.4) n (%) of patients
  Treatment‐related AE (investigations): Amylase increased: 2 (4.4) n (%) of patients
  Treatment‐related AE (investigations): Blood ALP increased: 0 n (%) of patients
  Treatment‐related AE (investigations): Blood creatinine increased: 0 n (%) of patients
  Treatment‐related AE (investigations): Lipase increased: 3 (6.7) n (%) of patients
  Treatment‐related AE (investigations): Neutrophil count decreased: 3 (6.7) n (%) of patients
  Treatment‐related AE (investigations): Platelet count decreased: 2 (4.4) n (%) of patients
  Treatment‐related AE (investigations): WBC count decreased: 1 (2.2) n (%) of patients
  Treatment‐related AE (investigations): γGT increased: 1 (2.2) n (%) of patients
  Treatment‐related AE: Anaemia: 1 (2.2) n (%) of patients
  Treatment‐related AE: Cellulitis: 1 (2.2) n (%) of patients
  Treatment‐related AE: Constipation: 1 (2.2) n (%) of patients
  Treatment‐related AE: Decreased appetite: 2 (4.4) n (%) of patients
  Treatment‐related AE: Diarrhoea: 1 (2.2) n (%) of patients
  Treatment‐related AE: Dry skin: 0 n (%) of patients
  Treatment‐related AE: Fatigue: 0 n (%) of patients
  Treatment‐related AE: Headache: 0 n (%) of patients
  Treatment‐related AE: Hypoalbuminaemia: 0 n (%) of patients
  Treatment‐related AE: Malaise: 1 (2.2) n (%) of patients
  Treatment‐related AE: Nausea: 0 n (%) of patients
  Treatment‐related AE: Oedema peripheral: 3 (6.7) n (%) of patients
  Treatment‐related AE: Pyrexia: 0 n (%) of patients
  Treatment‐related AE: Rash: 0 n (%) of patients
  Treatment‐related AE: Vomiting: 1 (2.2) n (%) of patients
GEOMETRY mono-1: safety; grade 3/4, n = 45, Table 5
  Any treatment‐related AE: 25 (55.6) n (%) of patients
GEOMETRY mono-1: safety; of 45 patients, cutoff September 18, 2019
  Patients who experienced at least one AE: 45 patients
GEOMETRY mono-1: safety; overall Japanese cohort (n = 45), cutoff April 15, 2019
  Discontinuation from treatment phase, reason: Adverse event: 8 (17.8) n (%) of patients
METΔex14‐mutated NSCLC [6]; first‐line, 28 patients
  ORR by BIRC: 68%
METΔex14‐mutated NSCLC [6]; first‐line
  Median DOR in responders: 12.6 months
METΔex14‐mutated NSCLC [6]; patients with evaluable brain metastases at baseline
  Intracranial responses, share of patients: about half
METΔex14‐mutated NSCLC [6]; second‐/third‐line, 69 patients
  ORR by BIRC: 41%
METΔex14‐mutated NSCLC [6]; second‐/third‐line, in two patients
  Tumor shrinkage: > 90%
METΔex14‐mutated NSCLC [6]; second‐/third‐line
  Median DOR in responders: 9.7 months
